Measurements reported in ChEMBL document CHEMBL3507680, “University of Dundee, Gates Library screen for HepG2 cell viability”.

Assay: Human HepG2 cell viability assay in 384 well format
Type: toxicity, cell-based
Set-up: dose 125 nL, time 70.5 hour; cytotoxicity at 70.5 h: concentration not given beside the values
Conditions: HepG2 cells, read-out: Inhibition

In the case of `CC(C)c1nnc2n1CC(CNCc1ccncc1)CC2` (stereo unspecified), the cytotoxicity at 70.5 h is reported as -3.85%.
In the case of `Cn1ncc2c1CN(Cc1cccnc1)CC2COCC1CC1` (stereo unspecified), the cytotoxicity at 70.5 h is reported as -2.46%.
With `CCc1cc(CN2C[C@H]3CC[C@@H]2CN(C2Cc4ccccc4C2)C3)on1` the cytotoxicity at 70.5 h was -2.96%.
With `NC(=O)N1CCc2ncc(CNC(=O)CC3CC3)n2CC1` the cytotoxicity at 70.5 h was 1.82%.
For `Cc1nc(C)c(C(=O)N2CCc3nnc(C4CCCCN4C)n3CC2)o1` (stereo unspecified), the cytotoxicity at 70.5 h was 0.605%.
For `COCC1CC2(CCN(c3ccc(C)nn3)CC2)CN1C(C)C` (stereo unspecified), the cytotoxicity at 70.5 h was -10.4%.
Work on `CNS(=O)(=O)CC(=O)NC(C)Cc1ccccc1Br` (stereo unspecified) yielded a cytotoxicity at 70.5 h of 3.97%.
Compound `CC(=O)N1CCCN(C(=O)CN(C)c2ccc(Cl)cn2)CC1` has a cytotoxicity at 70.5 h of 10.7%.
`CNCc1n[nH]c(=O)n1CC1CCCCC1` gave a cytotoxicity at 70.5 h of -5.1%.
In the case of `CC(C)c1noc(CCC(=O)N(CC2CCOC2)C2CC2)n1` (stereo unspecified), the cytotoxicity at 70.5 h is reported as -8.06%.
In the case of `Cc1nc(N(C)C)ncc1C(=O)NCCc1csc(-c2ccncc2)n1`, the cytotoxicity at 70.5 h is reported as -12.4%.
`CN1CCC(Cc2nc(-c3ccnn3C)n(Cc3ccccc3)n2)CC1` showed a cytotoxicity at 70.5 h of 12.7%.
For `Cc1cnn(CCNCC(=O)NC(C)c2ccc3c(c2)OCCO3)c1` (stereo unspecified), the cytotoxicity at 70.5 h was -3.11%.
Work on `CN(C)S(=O)(=O)N1CC[C@]2(C[C@H](OCc3ccccn3)CO2)C1` yielded a cytotoxicity at 70.5 h of -0.384%.
Work on `Cc1n[nH]c(SCC(=O)N2C[C@H]3CC[C@@H]2CN(c2ncccn2)C3)n1` yielded a cytotoxicity at 70.5 h of -4.86%.
With `O=C1CO[C@@H]2CN(S(=O)(=O)c3ccc(F)cc3)C[C@H]2N1` the cytotoxicity at 70.5 h was 15.2%.
Work on `FC1(F)CCN(Cc2ccncc2)CC12CCN(c1cccnc1)C2` (stereo unspecified) yielded a cytotoxicity at 70.5 h of 2.6%.
For `Cc1n[nH]c(C)c1CNC(=O)NC1CCCCC1`, the cytotoxicity at 70.5 h was -8.57%.
`Cc1nn(C)cc1C1CC(=O)Nc2c1cnn2C(C)C` (stereo unspecified) showed a cytotoxicity at 70.5 h of -10.7%.
With `CCC(=O)NC1CCCN(Cn2nc(C(C)(C)C)ccc2=O)C1` (stereo unspecified) the cytotoxicity at 70.5 h was -4.43%.
With `O=C(Cn1cnc2ccsc2c1=O)NCCCc1nnc2ccccn12` the cytotoxicity at 70.5 h was 26.5%.
For `Cc1cccc(N2CCOCC3(C2)CN(c2cccnc2)C(=O)CO3)n1` (stereo unspecified), the cytotoxicity at 70.5 h was -4.82%.
`CC(C)=CCN1C[C@H]2CC[C@@H]1CN(C(=O)c1ccc(S(N)(=O)=O)cc1)C2` showed a cytotoxicity at 70.5 h of 1.36%.
Work on `CN(CCCc1cnn(C)c1)Cc1cc2n(n1)CCCNC2` yielded a cytotoxicity at 70.5 h of -14.1%.
With `Cn1cc(CN2CC[C@H]3O[C@@H](C(=O)NC4CC4)CC[C@H]32)cn1` the cytotoxicity at 70.5 h was -1.4%.
For `CCC(C)(C)NC(=O)Cn1nc(C)nc1-c1cccc(C)c1`, the cytotoxicity at 70.5 h was -3.94%.
With `O=C(c1cscn1)N1C[C@H]2CCCC(OCc3cccnc3)[C@H]2C1` (stereo partly specified) the cytotoxicity at 70.5 h was -11.5%.
`CCc1[nH]n(C)c(=N)c1-c1ccc2c(c1)OCO2` showed a cytotoxicity at 70.5 h of -6.78%.
With `O=C(NCC1CC2(CO1)CN(c1nncs1)C2)C1CCC1` (stereo unspecified) the cytotoxicity at 70.5 h was -3.65%.
Compound `CC(C)Cc1nc(CN2CCC3(CCCO3)CCC2=O)no1` (stereo unspecified) has a cytotoxicity at 70.5 h of 0.922%.
`CCN(Cc1ccncc1)C1CCCN(Cc2ccc(F)cc2Cl)C1` (stereo unspecified) gave a cytotoxicity at 70.5 h of 1.69%.
Work on `Cn1cc(CN2C[C@@H]3CCC[C@@H](OCc4cccnc4)[C@@H]3C2)cn1` yielded a cytotoxicity at 70.5 h of 3.45%.
For `Cc1cccc2nc(CN3CCCC3Cn3cccn3)cn12` (stereo unspecified), the cytotoxicity at 70.5 h was -10.8%.
In the case of `CC(C)OCc1ccc(CNc2cncc(-n3cccn3)n2)cc1`, the cytotoxicity at 70.5 h is reported as -5.97%.
With `CC(Cn1cccn1)NCc1nc(-c2ccsc2)no1` (stereo unspecified) the cytotoxicity at 70.5 h was 5.46%.
With `CC(C)CC(=O)NCC(O)c1c(F)cccc1F` (stereo unspecified) the cytotoxicity at 70.5 h was -7.25%.
Compound `COc1cc(C(=O)N2CCCC(n3cncn3)C2)ccc1C` (stereo unspecified) has a cytotoxicity at 70.5 h of -8.45%.
For `Cc1cccc(CN2CCC3(CC2)NC(=O)CC3c2ccccc2)n1` (stereo unspecified), the cytotoxicity at 70.5 h was -7.81%.
Work on `COc1cccc2[nH]cc(CCNC(=O)N3CCC[C@H]3CO)c12` yielded a cytotoxicity at 70.5 h of -1.09%.
Work on `CC(=O)N[C@@H]1CN(Cc2nc3ccccc3[nH]2)C[C@H]1c1ccc(C)o1` yielded a cytotoxicity at 70.5 h of -8.75%.
In the case of `Cc1nc2c(c(NC3CCN(Cc4cccnc4)CC3)n1)CCNCC2`, the cytotoxicity at 70.5 h is reported as -18.8%.
With `CS(=O)(=O)N1CCN(C(=O)C2CSCCC(=O)N2)CC1` (stereo unspecified) the cytotoxicity at 70.5 h was 19.7%.
For `COc1cc(N2CCN(CC3CC3)c3nc(C)ccc3C2)ncn1`, the cytotoxicity at 70.5 h was 0.313%.
`CN(Cc1n[nH]c2c1CCC2)C(=O)CCc1cc2n(n1)CCCNC2` showed a cytotoxicity at 70.5 h of -12.8%.
`Cc1cc(C[C@@H]2COC[C@@H]2NC(=O)CCN2Cc3ccccc3C2)on1` gave a cytotoxicity at 70.5 h of 11.4%.
With `COc1ccc(-n2ccc(C(=O)NCCN3CCCC(C)C3)n2)cc1` (stereo unspecified) the cytotoxicity at 70.5 h was 23.3%.
`Cc1cc(C)n(CC2CCCN2C(=O)c2ccc3[nH]cnc3c2)n1` (stereo unspecified) showed a cytotoxicity at 70.5 h of -9%.
`COc1ncc(NCc2cccc(C#N)c2)cc1C(N)=O` showed a cytotoxicity at 70.5 h of -1.66%.
For `COCc1nc2n(n1)CCCC2Nc1nc(C2CC2)ns1` (stereo unspecified), the cytotoxicity at 70.5 h was 1.93%.
In the case of `O=C1NCCN1C1CCN(Cc2coc(-c3ccc(F)cc3)n2)CC1`, the cytotoxicity at 70.5 h is reported as -2.32%.
In the case of `CCC1=NC(SCC(=O)c2ccccc2)c2cc(CC)sc2N1` (stereo unspecified), the cytotoxicity at 70.5 h is reported as 13.5%.
For `COCCN1CCC2(CC1)CC(c1ccccc1)C(=O)N2C` (stereo unspecified), the cytotoxicity at 70.5 h was -7.45%.
In the case of `CCc1cnc(C)nc1NCc1cnc2c(c1)CCC2`, the cytotoxicity at 70.5 h is reported as -9.06%.
Compound `O=C(c1ccncc1)N1CCc2ncnc(C3CCOC3)c2CC1` (stereo unspecified) has a cytotoxicity at 70.5 h of -10.1%.
For `O=C(c1cccn2ccnc12)N1CCCN(c2cccnn2)CC1`, the cytotoxicity at 70.5 h was -20.2%.
For `Cc1ccc(CN(CCN(C)C)Cc2ccnn2C2CCCCO2)o1` (stereo unspecified), the cytotoxicity at 70.5 h was -3.26%.
